We go through four compounds from publication PMC3914206.

Holding throughout (assay type): binding
What all share (conditions): Compound Concentration 10 µM

The target of assay [1] is T1, panel of 442 kinases (Homo sapiens, UniProt Q6P3R8).
T1 construct: purchased KINOMEscan
T1 sequence (Q6P3R8 1-708): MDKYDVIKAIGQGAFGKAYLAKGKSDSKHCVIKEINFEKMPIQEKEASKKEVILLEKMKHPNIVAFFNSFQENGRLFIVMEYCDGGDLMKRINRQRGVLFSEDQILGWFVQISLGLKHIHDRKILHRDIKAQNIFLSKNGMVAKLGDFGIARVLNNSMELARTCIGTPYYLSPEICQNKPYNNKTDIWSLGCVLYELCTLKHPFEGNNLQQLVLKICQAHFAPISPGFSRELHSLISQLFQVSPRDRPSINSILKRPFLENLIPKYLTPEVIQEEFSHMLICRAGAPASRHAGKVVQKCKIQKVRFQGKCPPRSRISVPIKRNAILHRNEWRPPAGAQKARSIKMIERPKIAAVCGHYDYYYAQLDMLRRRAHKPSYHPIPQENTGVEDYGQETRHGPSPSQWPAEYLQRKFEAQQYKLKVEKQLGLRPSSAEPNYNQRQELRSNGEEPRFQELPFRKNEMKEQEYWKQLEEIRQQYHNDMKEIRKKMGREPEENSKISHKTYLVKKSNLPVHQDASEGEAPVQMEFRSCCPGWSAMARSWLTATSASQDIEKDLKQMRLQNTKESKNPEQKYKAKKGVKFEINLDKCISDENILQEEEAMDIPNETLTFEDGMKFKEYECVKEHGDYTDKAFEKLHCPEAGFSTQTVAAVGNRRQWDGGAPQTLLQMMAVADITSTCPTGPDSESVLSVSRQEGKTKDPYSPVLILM
An excerpt:
(§1) We assessed the selectivity of members of this scaffold using the KINOMEscan methodology across a near comprehensive panel of 442 kinases [[18,27]].

Assay [2] concerns the target T2, panel of 442 kinases (Homo sapiens, UniProt O75460).
T2 construct: purchased KINOMEscan
Text: as §1

Assay [3] deals with T3, panel of 442 kinases (Homo sapiens, UniProt P42345).
T3 construct: purchased KINOMEscan
Text: as §1

T2 sequence (O75460 19-977): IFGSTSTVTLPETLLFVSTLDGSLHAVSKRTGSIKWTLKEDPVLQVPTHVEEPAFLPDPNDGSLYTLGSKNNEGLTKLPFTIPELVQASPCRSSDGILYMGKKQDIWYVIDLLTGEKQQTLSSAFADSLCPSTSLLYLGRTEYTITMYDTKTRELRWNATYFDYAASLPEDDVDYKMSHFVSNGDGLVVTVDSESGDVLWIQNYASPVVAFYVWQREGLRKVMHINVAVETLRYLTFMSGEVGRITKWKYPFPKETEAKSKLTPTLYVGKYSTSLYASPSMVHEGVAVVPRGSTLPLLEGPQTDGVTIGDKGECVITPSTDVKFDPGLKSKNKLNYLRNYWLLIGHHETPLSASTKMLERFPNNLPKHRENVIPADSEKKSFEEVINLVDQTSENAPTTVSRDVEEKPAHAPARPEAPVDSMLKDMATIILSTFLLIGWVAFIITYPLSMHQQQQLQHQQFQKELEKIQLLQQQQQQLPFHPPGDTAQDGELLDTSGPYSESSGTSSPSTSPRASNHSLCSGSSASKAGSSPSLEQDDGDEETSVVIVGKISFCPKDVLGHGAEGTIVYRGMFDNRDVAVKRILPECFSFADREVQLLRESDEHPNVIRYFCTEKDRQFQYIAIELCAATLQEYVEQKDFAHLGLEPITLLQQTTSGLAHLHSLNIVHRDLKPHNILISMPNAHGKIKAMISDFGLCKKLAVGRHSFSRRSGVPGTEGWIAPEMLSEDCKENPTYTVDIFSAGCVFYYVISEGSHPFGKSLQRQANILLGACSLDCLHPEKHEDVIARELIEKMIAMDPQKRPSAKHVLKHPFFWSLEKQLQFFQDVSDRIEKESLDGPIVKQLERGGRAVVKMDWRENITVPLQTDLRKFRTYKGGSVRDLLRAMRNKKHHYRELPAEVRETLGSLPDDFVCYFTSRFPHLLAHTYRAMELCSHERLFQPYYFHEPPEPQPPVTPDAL

In the case of `CCOc1cc(C(=O)N2CCC(N3CCN(C)CC3)CC2)ccc1Nc1ncc2c(n1)N(C1CCCC1)c1ccccc1C(=O)N2C` [Compound 26], the “KINOMEscan: NEK5” value at panel of 442 kinases [1] is reported as 100. For the same compound, the “KINOMEscan: ERN1” value at panel of 442 kinases [2] is on record as 87. Further, at panel of 442 kinases [3], the “KINOMEscan: MTOR” value is given as 100.
As to `COc1cc(C(=O)N2CCC(N3CCN(C)CC3)CC2)ccc1Nc1ncc2c(n1)N1CCc3cccc(c31)C(=O)N2C` [Compound 24], the “KINOMEscan: NEK5” value on panel of 442 kinases [1] is given as 57.
Take `COc1cc(C(=O)N2CCC(N3CCN(C)CC3)CC2)ccc1Nc1ncc2c(n1)N(C)c1ccccc1C(=O)N2C` [15 (LRRK2-IN-1)]: the “KINOMEscan: NEK5” value on panel of 442 kinases [1] is 100. Besides, the “KINOMEscan: ERN1” value on panel of 442 kinases [2] amounted to 59. For the same compound, the “KINOMEscan: MTOR” value on panel of 442 kinases [3] came to 97.
The corresponding values for `COc1cc(C(=O)N2CCC(N3CCN(C)CC3)CC2)ccc1Nc1ncc2c(n1)N(C1CCCC1)c1ccccc1C(=O)N2C` [Compound 25, 11-cyclopentyl-2-((2-methoxy-4-(4-(4-methylpiperazin-1-yl)piperidine-1-carbonyl)phenyl)amino)-5-methyl-5H-benzo[e]pyrimido[5,4-b][1,4]diazepin-6(11H)-one] are 100, 96 and 100.
